Results published in ChEMBL document CHEMBL4052619, “First example of peptides targeting the dimer interface of Leishmania infantum trypanothione reductase with potent in vitro antileishmanial activity” (Eur J Med Chem, 2017).
The source made the active and inactive calls. The rule behind the calls is not given here. Bridge positions count the residues as written; N and C are the ends. Square brackets hold non-standard residues; d marks the D form. Peptide text beside a SMILES is read from it. ξ: configuration not given here. ξQ = NC(=O)CCC(N)C(=O)O; ξNle = CCCCC(N)C(=O)O; Aib = CC(C)(N)C(=O)O

How the values were obtained:
Trypanothione reductase = Trypanothione reductase (Leishmania infantum, UniProt A4HSF7); test: Inhibition of recombinant Leishmania infantum TryR preincubated for 10 mins followed by T[S]2 substrate addition and measured after 1 hr in presence of NADPH
Leishmania infantum [1] = test: Antileishmanial activity against Leishmania infantum axenic amastigotes assessed as induction of cell death at 25 uM after 24 hrs by propidium iodide staining based flow cytometry; format: functional
Leishmania infantum [2] = test: Antileishmanial activity against Leishmania infantum MCAN/ES/89/IPZ229/1/89 promastigotes assessed as induction of cell death at 25 uM after 24 hrs by propidium iodide staining based flow cytometry; format: functional
Leishmania infantum [3] = test: Antileishmanial activity against Leishmania infantum axenic amastigotes assessed as induction of cell death after 24 hrs by propidium iodide staining based flow cytometry; format: functional
Leishmania infantum [4] = test: Antileishmanial activity against Leishmania infantum MCAN/ES/89/IPZ229/1/89 promastigotes assessed as induction of cell death after 24 hrs by propidium iodide staining based flow cytometry; format: functional; details: MCAN/ES/89/IPZ229/1/89, 24 h
[5] = Cytotoxicity against human THP1 cells assessed as induction of cell death after 24 hrs by propidium iodide staining based flow cytometry; details: THP-1 cells, read-out: LC50

Sequence of Trypanothione reductase (A4HSF7 whole entry): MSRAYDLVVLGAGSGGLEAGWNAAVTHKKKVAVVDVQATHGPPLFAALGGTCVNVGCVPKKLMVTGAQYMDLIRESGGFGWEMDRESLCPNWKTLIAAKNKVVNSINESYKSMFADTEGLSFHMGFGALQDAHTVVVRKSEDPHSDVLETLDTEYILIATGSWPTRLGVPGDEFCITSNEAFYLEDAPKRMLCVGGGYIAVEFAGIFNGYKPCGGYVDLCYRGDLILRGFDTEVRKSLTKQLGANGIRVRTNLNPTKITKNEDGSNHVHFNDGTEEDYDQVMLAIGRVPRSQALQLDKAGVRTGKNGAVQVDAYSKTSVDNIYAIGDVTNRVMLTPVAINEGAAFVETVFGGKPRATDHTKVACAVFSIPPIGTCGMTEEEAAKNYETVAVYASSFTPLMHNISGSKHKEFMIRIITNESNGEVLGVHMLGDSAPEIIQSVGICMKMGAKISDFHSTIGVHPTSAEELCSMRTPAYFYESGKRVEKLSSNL

| Compound | IC50 (Trypanothione reductase) | Activity (Leishmania infantum [1]) | Activity (Leishmania infantum [2]) | LC50 (Leishmania infantum [3]) | LC50 (Leishmania infantum [4]) | CC50 at 24 h [5] |
| --- | --- | --- | --- | --- | --- | --- |
| CCCCC(NC(=O)[C@H](CCCCN)NC(=O)C(CCCC)NC(=O)[C@H](CO)NC(=O)[C@@H](NC(=O)[C@H](CCCCN)NC(=O)[C@@H](NC(=O)[C@H](CO)NC(=O)[C@H](CCC(N)=O)NC(=O)[C@H](CCC(=O)O)NC(=O)[C@@H](NC(=O)[C@H](CCCCN)NC(=O)[C@@H]1CCCN1C(C)=O)[C@@H](C)CC)C(C)C)[C@@H](C)CC)C(N)=O (some centres not stated) (Ac-PKIEQSVKIS[ξNle]K[ξNle]-NH2) | > 75 µM | inactive | inactive |  |  |  |
| CCCCC(NC(=O)[C@H](CCCCN)NC(=O)C(CCCC)NC(=O)[C@H](CO)NC(=O)[C@@H](NC(=O)CNC(=O)[C@@H]1CCCCNC(=O)CC[C@H](NC(=O)[C@H](CCCCN)NC(=O)[C@@H]2CCCN2C(=O)[C@H](CCCNC(=N)N)NC(=O)[C@H](CCCNC(=N)N)NC(=O)[C@H](CCCNC(=N)N)NC(=O)[C@H](CCCNC(=N)N)NC(=O)[C@H](CCCNC(=N)N)NC(=O)[C@H](CCCNC(=N)N)NC(=O)[C@H](CCCNC(=N)N)NC(=O)[C@H](CCCNC(=N)N)NC(=O)[C@H](CCCNC(=N)N)NC(C)=O)C(=O)N[C@@H]([C@@H](C)CC)C(=O)N[C@@H](CCC(N)=O)C(=O)N[C@@H](CO)C(=O)N1)[C@@H](C)CC)C(N)=O (some centres not stated) (Ac-RRRRRRRRRPKEIQSKGIS[ξNle]K[ξNle]-NH2; lactam 12-16) |  |  |  | 2.8 µM | 3.5 µM | 2.5 µM |
| CCCCC(NC(=O)[C@H](CCCCN)NC(=O)C(CCCC)NC(=O)[C@H](CO)NC(=O)[C@@H](NC(=O)CNC(=O)[C@H](CCCCN)NC(=O)[C@H](CO)NC(=O)[C@H](CCC(N)=O)NC(=O)[C@@H](NC(=O)[C@H](CCC(=O)O)NC(=O)[C@H](CCCCN)NC(=O)[C@@H]1CCCN1C(C)=O)[C@@H](C)CC)[C@@H](C)CC)C(N)=O (some centres not stated) (Ac-PKEIQSKGIS[ξNle]K[ξNle]-NH2) | > 75 µM | inactive | inactive |  |  |  |
| Ac-RRRRRRRRRKMGISSMVQPKII-NH2 |  |  |  | > 25 µM | > 25 µM | > 25 µM |
| Ac-PKEIQSKGI-NH2 | > 75 µM | inactive | inactive |  |  |  |
| Ac-PKIEQSVKI-NH2 | 47.4 µM | inactive | inactive |  |  |  |
| CCCCC(NC(=O)[C@H](CCCCN)NC(=O)C(CCCC)NC(=O)[C@H](CO)NC(=O)[C@@H](NC(=O)[C@H](CCC(=O)O)NC(=O)[C@@H](NC(=O)[C@H](CO)NC(=O)[C@H](CCC(N)=O)NC(=O)[C@@H](NC(=O)[C@@H](NC(=O)[C@H](CCCCN)NC(=O)[C@@H]1CCCN1C(C)=O)[C@@H](C)CC)[C@@H](C)CC)C(C)C)[C@@H](C)CC)C(N)=O (some centres not stated) | > 75 µM | inactive | inactive |  |  |  |
| CCCCC(NC(=O)[C@H](CCCCN)NC(=O)[C@H](CCCCN)NC(=O)[C@H](CO)NC(=O)[C@@H](NC(=O)CNC(=O)[C@H](CCC(=O)O)NC(=O)[C@H](CO)NC(=O)[C@H](CCC(N)=O)NC(=O)[C@@H](NC(=O)[C@@H](NC(=O)[C@H](CCCCN)NC(=O)[C@@H]1CCCN1C(C)=O)[C@@H](C)CC)[C@@H](C)CC)[C@@H](C)CC)C(N)=O (some centres not stated) (Ac-PKIIQSEGISKK[ξNle]-NH2) | > 75 µM | inactive | inactive |  |  |  |
| CC(=O)N[C@@H](CCCNC(=N)N)C(=O)N[C@@H](CCCNC(=N)N)C(=O)N[C@@H](CCCNC(=N)N)C(=O)N[C@@H](CCCNC(=N)N)C(=O)N[C@@H](CCCNC(=N)N)C(=O)N[C@@H](CCCNC(=N)N)C(=O)N[C@@H](CCCNC(=N)N)C(=O)N[C@@H](CCCNC(=N)N)C(=O)N[C@@H](CCCNC(=N)N)C(N)=O |  |  |  | > 25 µM | > 25 µM | > 25 µM |
| CCCCC(NC(=O)[C@H](CCCCN)NC(=O)C(CCCC)NC(=O)[C@H](CO)NC(=O)[C@@H](NC(=O)CNC(=O)[C@@H]1CCCCNC(=O)CC[C@H](NC(=O)[C@H](CCCCN)NC(=O)[C@@H]2CCCN2C(=O)C(C)(C)NC(=O)[C@H](CCCNC(=N)N)NC(=O)[C@H](CCCNC(=N)N)NC(=O)C(C)(C)NC(=O)[C@H](CCCNC(=N)N)NC(=O)[C@H](CCCNC(=N)N)NC(=O)C(C)(C)NC(=O)[C@H](CCCNC(=N)N)NC(=O)[C@H](CCCNC(=N)N)NC(C)=O)C(=O)N[C@@H]([C@@H](C)CC)C(=O)NC(CCC(N)=O)C(=O)N[C@@H](CO)C(=O)N1)[C@@H](C)CC)C(N)=O (some centres not stated) (Ac-RR[Aib]RR[Aib]RR[Aib]PKEI[ξQ]SKGIS[ξNle]K[ξNle]-NH2; lactam 12-16) |  |  |  | 10.4 µM | 6.4 µM | 5.2 µM |
| CCCCC(NC(=O)[C@H](CCCCN)NC(=O)C(CCCC)NC(=O)[C@H](CO)NC(=O)[C@@H](NC(=O)CNC(=O)[C@@H](NC(=O)[C@H](CO)NC(=O)[C@H](CCC(N)=O)NC(=O)[C@@H](NC(=O)[C@@H](NC(=O)[C@H](CCCCN)NC(=O)[C@@H]1CCCN1C(=O)[C@H](CCC(N)=O)NC(=O)[C@@H]1CCCN1C(=O)[C@@H]1CCCN1C(=O)[C@H](CCCNC(=N)N)NC(=O)[C@H](CCCNC(=N)N)NC(=O)[C@H](CCCNC(=N)N)NC(=O)[C@H](CCC(N)=O)NC(=O)[C@H](CCCNC(=N)N)NC(=O)[C@H](CCCNC(=N)N)NC(=O)[C@H](CCCCN)NC(=O)[C@H](CCCCN)NC(=O)[C@H](CCCNC(=N)N)NC(=O)CNC(C)=O)[C@@H](C)CC)[C@@H](C)CC)C(C)C)[C@@H](C)CC)C(N)=O (some centres not stated) (Ac-GRKKRRQRRRPPQPKIIQSVGIS[ξNle]K[ξNle]-NH2) |  |  |  | 1.5 µM | 4.3 µM | 1.2 µM |
| CCCCC(NC(=O)[C@H](CCCCN)NC(=O)C(CCCC)NC(=O)[C@H](CO)NC(=O)[C@@H](NC(=O)CNC(=O)[C@@H](NC(=O)[C@H](CO)NC(=O)[C@H](CCC(N)=O)NC(=O)[C@@H](NC(=O)[C@@H](NC(=O)[C@H](CCCCN)NC(=O)[C@@H]1CCCN1C(=O)[C@H](CCCNC(=N)N)NC(=O)[C@H](CCCNC(=N)N)NC(=O)[C@H](CCCNC(=N)N)NC(=O)[C@H](CCCNC(=N)N)NC(=O)[C@H](CCCNC(=N)N)NC(=O)[C@H](CCCNC(=N)N)NC(=O)[C@H](CCCNC(=N)N)NC(=O)[C@H](CCCNC(=N)N)NC(=O)[C@H](CCCNC(=N)N)NC(C)=O)[C@@H](C)CC)[C@@H](C)CC)C(C)C)[C@@H](C)CC)C(N)=O (some centres not stated) (Ac-RRRRRRRRRPKIIQSVGIS[ξNle]K[ξNle]-NH2) |  |  |  | 3.5 µM | 4.6 µM | 1.7 µM |
| CCCCCCCCCCCCCCCCCCOCC(COP(=O)([O-])OCC[N+](C)(C)C)OC (configuration not stated) [EDELFOSINE] |  |  |  | 0.6 µM | 9 µM | 1 µM |
| CCCCC(NC(=O)[C@H](CCCCN)NC(=O)C(CCCC)NC(=O)[C@H](CO)NC(=O)[C@@H](NC(=O)CNC(=O)[C@@H](NC(=O)[C@H](CO)NC(=O)[C@H](CCC(N)=O)NC(=O)[C@@H](NC(=O)[C@@H](NC(=O)[C@H](CCCCN)NC(=O)[C@@H]1CCCN1C(C)=O)[C@@H](C)CC)[C@@H](C)CC)C(C)C)[C@@H](C)CC)C(=O)N[C@@H](CCCNC(=N)N)C(=O)N[C@@H](CCCNC(=N)N)C(=O)N[C@@H](CCCNC(=N)N)C(=O)N[C@@H](CCCNC(=N)N)C(=O)N[C@@H](CCCNC(=N)N)C(=O)N[C@@H](CCCNC(=N)N)C(=O)N[C@@H](CCCNC(=N)N)C(=O)N[C@@H](CCCNC(=N)N)C(=O)N[C@@H](CCCNC(=N)N)C(N)=O (some centres not stated) |  |  |  | 2.1 µM | 4.4 µM | 0.8 µM |
